Measured values from article PMC10532956, “Age and Sex-Related Differences in Teicoplanine Isoform Concentrations in SARS-CoV-2 Patients” (Life, 2023).

Details: male, human, in vivo, iv

CC(=O)N[C@H]1[C@H](O[C@@H]2c3ccc(c(Cl)c3)Oc3cc4cc(c3O)Oc3ccc(cc3Cl)C[C@H]3NC(=O)[C@H](N)c5ccc(O)c(c5)Oc5cc(O)cc(c5)[C@H](NC3=O)C(=O)N[C@H]4C(=O)N[C@H]3C(=O)N[C@@H]2C(=O)N[C@H](C(=O)O)c2cc(O)cc(O[C@H]4O[C@H](CO)[C@@H](O)[C@H](O)[C@@H]4O)c2-c2cc3ccc2O)O[C@H](CO)[C@@H](O)[C@@H]1O [A3-1]
isoform plasma concentration, median: 0.18 µg/mL
